Data set [1] can be described thus: Solubility of finasteride polymorphic crystal forms. The class given is physicochemical. As to conditions: 25° C. As for the experimental part: Finasteride Form I can be prepared by dissolving finasteride in glacial acetic acid (ca. 100 mg/ml) and adding water with stirring until the weight % of water equals or exceeds 84%. The resulting solid phase is collected by filtration and dried under vacuum and at about 50° C. […] The x-ray powder diffraction pattern is characterized by d-spacings of 6.44, 5.69, 5.36, 4.89, 4.55, 4.31, 3.85, 3.59 and 3.14. […] The solubilities in water and cyclohexane at 25° C. are 0.05+0.02 and 0.27+0.05 mg/gm respectively. In addition, Form I of finasteride can be prepared by recrystallization from dry (H2O<1 mg/ml) ethyl acetate and isopropyl acetate. The isolated solids are dried under vacuum at about 50° C. and have the same physical characterization data as given above.
Form II of finasteride can be prepared by dissolving finasteride in glacial acetic acid (ca. 100 mg/ml) and adding water with stirring until the weight % of water equals about 75% but not in excess of 80%. The resulting solid phase is collected by filtration and dried under vacuum and at about 100° C. […] The x-ray powder diffraction pattern is characterized by d-spacings of 14.09, 10.36, 7.92, 7.18, 6.40, 5.93, 5.66, 5.31, 4.68, 3.90, 3.60 and 3.25. […] The solubilities in water and cyclohexane at 25° C. are 0.16+0.02 and 0.42+0.05 mg/gm respectively. In addition, Form II of finasteride can be prepared by recrystallization from ethyl acetate containing between 2 to 30 mg/ml of water and isopropyl acetate containing between 2 to 15 mg/ml of water. The isolated solids are dried under vacuum at about 80° C. and have the same physical characterization data as given above. Form II can also be prepared by heating Form I up to about 150° C., holding for about one hour and cooling back to room temperature. The Form II prepared in this manner has the same physical characterization data as given above.

Data set [2] concerns hair growth (androgenic alopecia). The experiment in a line: Macrophotography and global photography procedure for detection of hair growth. The note with it: dosages below 5 mg/day per patient, for example 1 mg/day or 0.2 mg/day; "it can be shown". Type of data set: in vivo, patients. As for the experimental part:
Location: ID card Haircount target area
In these clinical photographs, the only variable allowed is the haircount. Film emulsion, lighting, framing, exposure, and reproduction ratios are held constant.
1. The haircount area on the patient is prepared as follows: A small (˜1 mm) dot tattoo is placed at the beginning of the study at the leading edge of the bald area directly anterior to the center of the vertex bald spot, using a commercial tattooing machine or manually (needle and ink). An area approximately one square inch in size, centered at the tattoo at the leading edge of the balding area, is clipped short (˜2 mm). Cut hairs are removed from the area to be photographed, using tape. Compressed air and/or ethanol wipes may also be used to facilitate removal of cut hairs.
2. […]
A trained technician places a transparency over the photographic print and, using a felt tip pen, places a black dot over each visible hair. The dot map transparency is then counted using image analysis with computer assistance.
Photographs are coded with a random number corresponding to study site, visit number and patient allocation number to insure blinding to time. At Month 6, baseline and Month 6 photographs are counted and data analyzed for interim analysis. At Month 12, baseline, Month 6 and Month 12 photographs are counted and data analyzed for the primary endpoint. […]

In data set [3] the test system is DHT content in scalp tissue. Nature of the data set: DHT content in scalp tissue after oral finasteride in men with male pattern baldness. Type of data set: in vivo. The note with it: orally for 6 weeks, 0.2 mg/day, 1.0 mg/day and 5.0 mgs/day. The method, then: In another test, finasteride was orally administered for 6 weeks to men with male pattern baldness at doses of 0.2 mg/day, 1.0 mg/day and 5.0 mgs/day.

In data set [1], `CC(C)(C)NC(=O)[C@H]1CCC2C3CCC4NC(=O)C=C[C@]4(C)C3CC[C@@]21C` (stereo partly drawn) [Form I, 17β-(N-tert-butylcarbamoyl)-4-aza-5α-androst-1-ene-3-one] had a solubility in cyclohexane of 0.27 ± 0.05 mg/gm and a solubility in water of 0.05 ± 0.02 mg/gm.
The like results for `CC(C)(C)NC(=O)[C@H]1CCC2C3CCC4NC(=O)C=C[C@]4(C)C3CC[C@@]21C` (stereo partly drawn) [Form II, 17β-(N-tert-butylcarbamoyl)-4-aza-5α-androst-1-ene-3-one] were, in that order, 0.42 ± 0.05 mg/gm and 0.16 ± 0.02 mg/gm.
Regarding `CC(C)(C)NC(=O)[C@H]1CC[C@H]2[C@@H]3CC[C@H]4NC(=O)C=C[C@]4(C)[C@H]3CC[C@]12C` [finasteride, 17β-(N-tert-butylcarbamoyl)-4-aza-5α-androst-1-ene-3-one], the “hair growth / treatment of androgenic alopecia” value in data set [2] is “promote hair growth”. The “DHT content in scalp tissue” value in data set [3] is listed as “significant reduction”.

The values above are taken from US6355649B1, “Method of treating seborrhea with 5-α reductase inhibitors” (priority 1993, dated 2002).
